Patent US20140205654A1, “LIPOSOMAL VANCOMYCIN FOR THE TREATMENT OF MRSA INFECTIONS” (CEDARS-SINAI MEDICAL CENTER, priority 2011, published 2014)
≈ marks a conversion by molar mass, not a printed value.

Key:
Format in all cases: cell-based
[1] = system: MRSA strain NRS-35; test: MIC by broth dilution; settings: Staphylococcus aureus, 24 h, read-out: Vancomycin MIC
Experimental: (§1) The MICs of free and liposomal antibiotics for all strains were determined by the broth dilution technique. Briefly, serial dilutions of free- or liposome-encapsulated antibiotic from 20 to 0.3 μg/ml were prepared. For bacterial suspensions, frozen stocks of MRSA were streaked on sheep blood agar plates. Single colonies were inoculated into fresh media and shaken for 20 hr at 37° C. The overnight bacteria were diluted and added to 96-well plates (Becton Dickinson) to achieve an approximate concentration of 1×10^5. The inocula were confirmed by plating on agar. The 96-well plates were then incubated with or without shaking at 37° C., and the lowest concentration of antibiotic formulations that inhibited visible growth of bacteria was determined after 24 hours (MIC). Incubation of the plates with shaking (at 200 rpm) increased the consistency of MIC measurement for the liposomal preparations. For determination of MBC, the broths used for MIC determination were plated on agar, and the first dilution at which 99.9% of the original inocula were killed was identified. All MIC and MBC assays were performed at least three times.

[2] = system: MRSA 81; test: MIC by broth dilution; settings: Staphylococcus aureus, 24 h, read-out: Vancomycin MIC
Experimental: as §1

[3] = system: MRSA 79; test: MIC by broth dilution; settings: Staphylococcus aureus, 24 h, read-out: Vancomycin MIC
Experimental: as §1

[4] = system: MRSA 78; test: MIC by broth dilution; settings: Staphylococcus aureus, 24 h, read-out: Vancomycin MIC
Experimental: as §1

[5] = system: MRSA 82; test: MIC by broth dilution; settings: Staphylococcus aureus, 24 h, read-out: Vancomycin MIC
Experimental: as §1

[6] = system: MRSA strain ATCC 43300; test: MIC by broth dilution; settings: Staphylococcus aureus, 24 h, read-out: Vancomycin MIC
Experimental: as §1

[7] = system: MRSA 80; test: MIC by broth dilution; settings: Staphylococcus aureus, 24 h, read-out: Vancomycin MIC
Experimental: as §1

[8] = system: MRSA 83; test: MIC by broth dilution; settings: Staphylococcus aureus, 24 h, read-out: Vancomycin MIC
Experimental: as §1

[9] = system: MRSA strain LAC; test: MIC by broth dilution; settings: Staphylococcus aureus, 24 h, read-out: Vancomycin MIC
Experimental: as §1

[10] = system: MRSA strain NRS-35; test: MBC determination; settings: Staphylococcus aureus, read-out: Vancomycin MBC
Experimental: as §1

[11] = system: MRSA strain LAC; test: MBC determination; settings: Staphylococcus aureus, read-out: Vancomycin MBC
Experimental: as §1

Which MIC [1] does the source give for `CN[C@H](CC(C)C)C(=O)N[C@H]1C(=O)N[C@@H](CC(N)=O)C(=O)N[C@H]2C(=O)N[C@H]3C(=O)N[C@H](C(=O)N[C@H](C(=O)O)c4cc(O)cc(O)c4-c4cc3ccc4O)[C@H](O)c3ccc(c(Cl)c3)Oc3cc2cc(c3O[C@@H]2O[C@H](CO)[C@@H](O)[C@H](O)[C@H]2O[C@H]2C[C@](C)(N)[C@H](O)[C@H](C)O2)Oc2ccc(cc2Cl)[C@H]1O` [Free Vancomycin, Vancomycin] here?
Its MIC is 2.5 µg/mL (≈ 1.73 µM).

And the MIC [2]?
The MIC was 1.25 µg/mL (≈ 0.863 µM).

And the MIC [3]?
The MIC was 1.25 µg/mL (≈ 0.863 µM).

And the MIC [4]?
Its MIC is 1.25 µg/mL (≈ 0.863 µM).

And the MIC [5]?
The MIC was 2.5 µg/mL (≈ 1.73 µM).

And the MIC [6]?
Its MIC is 1.25 to 2.5 µg/mL (≈ 0.863 to 1.73 µM).

And the MIC [7]?
Its MIC is 1.25 µg/mL (≈ 0.863 µM).

And the MIC [8]?
Its MIC is 1.25 µg/mL (≈ 0.863 µM).

And the MIC [9]?
The MIC was 1.25 to 2.5 µg/mL (≈ 0.863 to 1.73 µM).

And the MBC [10]?
Its MBC is 2.5 to 5 µg/mL (≈ 1.73 to 3.45 µM).

And the MBC [11]?
Its MBC is 2.5 µg/mL (≈ 1.73 µM).
